`Cn1nc(-c2ccc(F)cc2)c(-c2ccncc2)c1NC(=O)Cc1ccc(F)cc1Cl` [Example 39, 5-(2-Chloro-4-fluorophenylacetylamino)-3-(4-fluorophenyl)-1-methyl-4-(4-pyridyl)pyrazole] registered a melting point of 229 to 232.7 °C. In turn, `Cn1nc(-c2ccc(F)cc2)c(-c2ccncc2)c1NC(=O)Cc1cc(F)ccc1F` [Example 35, 5-(2,5-difluorophenylacetylamino)-3-(4-fluorophenyl)-1-methyl-4-(4-pyridyl)pyrazole] showed a melting point of 207 to 208 °C.

Turning to `C[C@H](N)C(=O)Nc1n[nH]c(-c2ccc(F)cc2)c1-c1ccncc1.Cl`, the melting point was in the range of 210.2 to 211.5 °C.

In turn, `Cn1nc(NC(=O)Cc2ccccc2)c(-c2ccncc2)c1-c1ccc(F)cc1` [Example 116, 5-(4-fluorophenyl)-1-methyl-3-phenylacetylamino-4-(4-pyridyl)pyrazole] displayed a melting point of 157.6 to 160.1 °C. With `COc1cccc(CC(=O)Nc2c(-c3ccncc3)c(-c3ccc(F)cc3)nn2C)c1OC` [Example 53, 5-(2,3-Dimethoxyphenylacetylamino)-3-(4-fluorophenyl)-1-methyl-4-(4-pyridyl)pyrazole] the figure was 185.4 to 193.4 °C.

Molecule `Cn1nc(-c2ccc(F)cc2)c(-c2ccncc2)c1NC(=O)Cc1c(Cl)cccc1Cl` [Example 38, 5-(2,6-Dichlorophenylacetylamino)-3-(4-fluorophenyl)-1-methyl-4-(4-pyridyl)pyrazole] displayed a melting point of 252.5 to 256.7 °C.

Molecule `Cc1cc(C)cc(CC(=O)Nc2c(-c3ccncc3)c(-c3ccc(F)cc3)nn2C)c1` [Example 50, 5-(3,5-Dimethylphenylacetylamino)-3-(4-fluorophenyl)-1-methyl-4-(4-pyridyl)pyrazole] came in with a melting point of 211.2 to 212.4 °C. Take `Cn1nc(-c2ccc(F)cc2)c(-c2ccncc2)c1NC(=O)Cc1ccccc1Br` [Example 57, 5-(2-Bromophenylacetylamino)-3-(4-fluorophenyl)-1-methyl-4-(4-pyridyl)pyrazole]: the melting point lay in the range of 223.8 to 227.6 °C. Molecule `O=C(Cc1ccccc1Cl)Nc1c(-c2ccncc2)c(-c2ccc(F)cc2)nn1-c1ccccc1` [Example 107, 5-(2-chlorophenylacetylamino)-3-(4-fluorophenyl)-1-phenyl-4-(4-pyridyl)pyrazole] returned a melting point of 265.2 to 268 °C. `Cn1nc(-c2ccc(Cl)c(Cl)c2)c(-c2ccncc2)c1NC(=O)Cc1ccccc1` [Example 111, 3-(3,4-Dichlorophenyl)-1-methyl-5-phenylacetylamino-4-(4-pyridyl)pyrazole] showed a melting point of 198.4 to 199.1 °C. Under `CN(C(=O)Cc1ccccc1Cl)c1c(-c2ccncc2)c(-c2ccc(F)cc2)nn1C` [Example 121, 5-[N-(2-chlorophenylacetyl)-N-methylamino]-3-(4-fluorophenyl)-1-methyl-4-(4-pyridyl)pyrazole] stands 168.6 to 171.2 °C. `CC(C(=O)Nc1n[nH]c(-c2ccc(F)cc2)c1-c1ccncc1)c1ccccc1` (centres unmarked) [Example 5, 5-(4-Fluorophenyl)-3-(2-phenylpropionylamino)-4-(4-pyridyl)pyrazole] gave a melting point of 240.6 to 241 °C. `COc1ccc(CC(=O)N(C)c2c(-c3ccncc3)c(-c3ccc(F)cc3)nn2C)cc1` [Example 126, 3-(4-Fluorophenyl)-1-methyl-5-[N-methyl-N-(4-methoxyphenylacetyl)amino]-4-(4-pyridyl)pyrazole]: the melting point was 175.8 to 178.1 °C. For `O=C(CC1CCCCC1)Nc1n[nH]c(-c2ccc(F)cc2)c1-c1ccncc1` [Example 23, 3-cyclohexylacetylamino-5-(4-fluorophenyl)-4-(4-pyridyl)pyrazole], the melting point was 296.3 to 299.9 °C. Under `CCn1nc(-c2ccc(F)cc2)c(-c2ccncc2)c1NC(=O)Cc1ccccn1` [Example 100, 1-Ethyl-3-(4-fluorophenyl)-4-(4-pyridyl)-5-(2-pyridylacetylamino)pyrazole] stands 147.5 to 149.5 °C; under `COCC(=O)Nc1n[nH]c(-c2ccc(F)cc2)c1-c1ccncc1` [Example 15, 5-(4-Fluorophenyl)-3-methoxyacetylamino-4-(4-pyridyl)pyrazole], 246 to 248 °C. Molecule `Cn1nc(-c2ccc(F)cc2)c(-c2ccncc2)c1NC(=O)Cc1ccc2c(c1)OCO2` [Example 43, 3-(4-Fluorophenyl)-1-methyl-5-(3,4-methylenedioxyphenylacetylamino)-4-(4-pyridyl)pyrazole] registered a melting point of 113.6 to 116.5 °C. The molecule `Cn1nc(-c2ccc(F)cc2)c(-c2ccncc2)c1NC(=O)Cc1ccsc1` [Example 80, 3-(4-Fluorophenyl)-1-methyl-4-(4-pyridyl)-5-(3-thienylacetylamino)pyrazole] gave a melting point of 151.9 to 154.6 °C. Under `Cn1nc(-c2ccc(F)c(Cl)c2)c(-c2ccncc2)c1NC(=O)Cc1c(F)c(F)c(F)c(F)c1F` [Example 114, 3-(3-Chloro-4-fluorophenyl)-1-methyl-5-(2,3,4,5,6-pentafluorophenylacetylamino)4-(4-pyridyl)pyrazole] stands 194.7 to 196 °C; under `Cn1nc(-c2ccc(F)cc2)c(-c2ccncc2)c1NC(=O)Cc1ccc(Cl)c(Cl)c1` [Example 37, 5-(3,4-Dichlorophenylacetylamino)-3-(4-fluorophenyl)-1-methyl-4-(4-pyridyl)pyrazole], 205.1 to 207 °C. With `Cn1nc(-c2ccc(F)cc2)c(-c2ccncc2)c1NC(=O)Cc1c[nH]c2ccccc12` [Example 82, 3-(4-Fluorophenyl)-5-(indol-3-ylacetylamino)-1-methyl-4-(4-pyridyl)pyrazole] the figure was 66.9 to 68.8 °C; with `CC(C(=O)Nc1c(-c2ccncc2)c(-c2ccc(F)cc2)nn1C)c1ccccc1` (centres unmarked) [Example 73, 3-(4-Fluorophenyl)-1-methyl-5-(2-phenylpropionylamino)-4-(4-pyridyl)pyrazole], 210 to 214.9 °C.

Molecule `COc1cccc(CC(=O)Nc2c(-c3ccncc3)c(-c3ccc(F)cc3)nn2C)c1` [Example 63, 3-(4-Fluorophenyl)-5-(3-methoxyphenylacetylamino)-1-methyl-4-(4-pyridyl)pyrazole] gave a melting point of 135 to 141.2 °C. Turning to `COc1cc(CC(=O)Nc2c(-c3ccncc3)c(-c3ccc(F)cc3)nn2C)cc(OC)c1OC` [Example 54, 3-(4-Fluorophenyl)-1-methyl-4-(4-pyridyl)-5-(3,4,5-trimethoxyphenylacetylamino)pyrazole], the melting point was 178.1 to 180.4 °C. Consider `Cn1nc(-c2ccc(F)c(Cl)c2)c(-c2ccncc2)c1NC(=O)Cc1ccccc1` [Example 113, 3-(3-Chloro-4-fluorophenyl)-1-methyl-5-phenylacetylamino-4-(4-pyridyl)pyrazole], for which the melting point was 194.2 to 194.7 °C. In the case of `COc1ccccc1CC(=O)Nc1c(-c2ccncc2)c(-c2ccc(F)cc2)nn1C` [Example 69, 3-(4-Fluorophenyl)-5-(2-methoxyphenylacetylamino)-1-methyl-4-(4-pyridyl)pyrazole], the melting point lay in the range of 206.8 to 209.2 °C. `O=C(Cc1ccccc1)Nc1n[nH]c(-c2ccc(F)cc2)c1-c1ccncc1` [Example 1, 5-(4-fluorophenyl)-3-phenylacetylamino-4-(4-pyridyl)pyrazole] came in with a melting point of 289.2 to 290.4 °C.

`COc1ccc(CC(=O)Nc2n[nH]c(-c3ccc(F)cc3)c2-c2ccncc2)cc1` [Example 3, 5-(4-Fluorophenyl)-3-(4-methoxyphenylacetylanino)-4-(4-pyridyl)pyrazole] returned a melting point of 265.1 to 266.2 °C.

In the case of `Cn1nc(-c2ccc(F)cc2)c(-c2ccncc2)c1NC(=O)Cc1c(F)cccc1Cl` [Example 36, 5-(2-Chloro-6-fluorophenylacetylamino)-3-(4-fluorophenyl)-1-methyl-4-(4-pyridyl)pyrazole], the melting point lay within 216.9 to 224.6 °C.

The molecule `Cc1ccc(CC(=O)Nc2n[nH]c(-c3ccc(F)cc3)c2-c2ccncc2)cc1` [Example 7, 5-(4-Fluorophenyl)-3-(4-methylphenylacetylamino)-4-(4-pyridyl)pyrazole] had a melting point of 262.8 to 264.7 °C. `O=C(Cc1c(F)c(F)c(F)c(F)c1F)Nc1n[nH]c(-c2ccc(F)cc2)c1-c1ccncc1` [Example 31, 5-(4-Fluorophenyl)-3-(2,3,4,5,6-pentafluorophenylacetylamino)-4-(4-pyridyl)pyrazole] had a melting point of no less than 325 °C. `CC(C)C(=O)Nc1n[nH]c(-c2ccc(F)cc2)c1-c1ccncc1` [Example 18, 5-(4-Fluorophenyl)-3-isobutyrylamino-4-(4-pyridyl)pyrazole] came in with a melting point of 291.1 to 294 °C. `O=C(Cc1ccccc1Cl)Nc1n[nH]c(-c2ccc(F)cc2)c1-c1ccncc1` [Example 24, 3-(2-chlorophenylacetylamino)-5-(4-fluorophenyl)-4-(4-pyridyl)pyrazole] registered a melting point of 238.8 to 240.1 °C. In turn, `Cn1nc(-c2ccc(F)cc2)c(-c2ccncc2)c1NC(=O)Cc1ccccc1C(F)(F)F` [Example 68, 3-(4-Fluorophenyl)-1-methyl-4-(4-pyridyl)-5-(2-trifluoromethylphenylacetylamino)pyrazole] came in with a melting point of 242.7 to 244.5 °C. Take `Cc1ccc(S(=O)(=O)Nc2n[nH]c(-c3ccc(F)cc3)c2-c2ccncc2)cc1` [Example 140, 5-(4-Fluorophenyl)-4-(4-pyridyl)-3-(p-toluenesulfonylamino)pyrazole]: the melting point lay in the range of 221.2 to 221.5 °C. The molecule `O=C(Cc1ccccc1)Nc1n[nH]c(-c2ccc(F)cc2)c1-c1ccnc2ccccc12` [Example 10, 5-(4-Fluorophenyl)-4-(4-quinolyl)-3-phenylacetylaminopyrazole] had a melting point of 273.4 to 275.3 °C. Under `Cn1nc(-c2ccc(F)cc2)c(-c2ccncc2)c1NC(=O)Cc1ccc(F)cc1F` [Example 40, 5-(2,4-Difluorophenylacetylamino)-3-(4-fluorophenyl)-1-methyl-4-(4-pyridyl)pyrazole] stands 225.5 to 228.3 °C; under `COc1ccc(CC(=O)Nc2c(-c3ccncc3)c(-c3ccc(F)cc3)nn2C)cc1` [Example 64, 3-(4-Fluorophenyl)-5-(4-methoxyphenylacetylamino)-1-methyl-4-(4-pyridyl)pyrazole], 172.3 to 176 °C.

What is called melting point is the temperature of the solid-liquid transition.

The values are drawn from patent US6511997B1, “Aminopyrazole derivatives” (Teikoku Hormone Mfg. Co., Ltd., priority 1998, dated 2003).
